For one assay, the system named is blood glucose. Briefly: Reversal of Adrenaline-Exacerbated Glucose Intolerance in Mice. It is filed as in vivo, CFLP female mice. The settings on record: Mus musculus, 2 h, oral gavage, glucose 1 g/kg and adrenaline 300 μg/kg s.c. 30 min later, 0-120 min, vs water dosed control, read-out: % Reduction in area under Blood Glucose curve; for inhibition in vivo at 20 µmol/kg: 20 μmol/kg. The protocol:
(A) Reversal of Adrenaline-Exacerbated Glucose Intolerance in Mice
CFLP female mice of about 25 g were fasted for 24 hours prior to receiving water (10 ml/kg) or compounds by oral gavage. Thirty minutes later, glucose (1 g/kg) and adrenaline (300 μg/kg) were injected subcutaneously. Blood samples for glucose analysis were taken serially from the tail of each mouse at 0, 30, 60 90 and 120 minutes after dosing glucose and the results are expressed below as the percentage reduction in the area under the blood glucose curve; the compound treated groups being compared to the water dosed control group. Six mice were used in each treatment group.

A further assay addresses T1, α2 -Adrenoceptor (Homo sapiens, UniProt P08913).
T1 construct: Human platelet membranes; from tissue; host or cells: human platelet membranes
T1 sequence (P08913 1-465): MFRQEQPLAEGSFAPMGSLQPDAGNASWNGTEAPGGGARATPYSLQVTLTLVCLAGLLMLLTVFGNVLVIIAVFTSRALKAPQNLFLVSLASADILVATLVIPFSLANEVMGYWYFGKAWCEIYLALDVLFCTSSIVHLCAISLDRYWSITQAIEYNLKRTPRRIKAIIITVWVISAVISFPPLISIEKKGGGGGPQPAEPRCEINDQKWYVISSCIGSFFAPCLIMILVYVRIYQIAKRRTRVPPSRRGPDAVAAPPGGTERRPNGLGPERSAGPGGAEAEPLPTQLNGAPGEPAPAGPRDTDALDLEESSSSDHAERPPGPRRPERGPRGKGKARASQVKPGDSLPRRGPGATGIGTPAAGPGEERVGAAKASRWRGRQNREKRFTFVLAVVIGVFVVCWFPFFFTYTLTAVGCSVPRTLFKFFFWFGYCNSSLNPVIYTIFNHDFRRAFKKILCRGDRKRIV
Briefly: α2-Adrenoceptor Binding ([3H] Rauwolscine, human platelet membranes). On the procedure:
(B) α2 -Adrenoceptor Binding
Human platelet membranes were incubated with [^3 H] Rauwolscine (0.5-1.0 nM) for 30 minutes at 30° C. with varying concentrates of the drug (0.1-10,000 nM). The binding assay was stopped by filtering and rinsing on GF/B glass fibre filters.

Setting [1] is: human platelet membranes, [3H] Rauwolscine 0.5-1.0 nM, 30 minutes at 30° C., read-out: Binding Affinity Ki.

Results on 13 compounds are retold here after patent publication US4918083A, “4,5 Dihydroimidazole compounds which have useful pharmaceutical utility” (Beecham Group p.l.c., priority 1986, dated 1990).

Counter-ions that a name gives are not always drawn. Like-named read-outs stand apart in the source and are kept apart here.

As usually defined, the Ki is a dissociation constant, usually derived from enzyme kinetics or from competition with a known ligand. Consider `CC1c2ccccc2CN1CC1=NCCN1` (stereo not drawn) [Example 1, 2-[2H-(1-Methyl-1,3-dihydroisoindole)methyl]-4,5-dihydroimidazole], for which the inhibition in vivo at 20 µmol/kg with blood glucose worked out at 34%. The same compound registered a Ki on α2 -Adrenoceptor of 1.7 nM.
Turning to `CCC1c2ccccc2CN1CC1=NCCN1` (stereo not drawn) [Example 2, 2-[2H-(1-Ethyl-1,3-dihydroisoindole)methyl]-4,5-dihydroimidazole dihydrochloride], in the assay on blood glucose, the inhibition in vivo at 20 µmol/kg came to 27%. The Ki on α2 -Adrenoceptor (setting [1]) amounted to 4.1 nM.
With `CC1c2ccc(Cl)cc2CN1CC1=NCCN1` (stereo not drawn) [Example 3, 2-[2H-(5-Chloro-1-methyl-1,3-dihydroisoindole)methyl]-4,5-dihydroimidazole dihydrochloride], the inhibition in vivo at 10 µmol/kg with blood glucose (10 μmol/kg) came to 41%. The inhibitory constant (Ki) on α2 -Adrenoceptor (setting [1]) was found to be 3.4 nM.
With `CC1c2cc(Cl)ccc2CN1CC1=NCCN1` (stereo not drawn) [Example 4, 2-[2H-(6-Chloro-1-methyl-1,3-dihydroisoindole)methyl]-4,5-dihydroimidazole], the inhibition in vivo at 20 µmol/kg in the assay on blood glucose worked out at 27%. In addition, the Ki at α2 -Adrenoceptor (setting [1]) was 6.4 nM.
For the compound `CC1c2ccc(F)cc2CN1CC1=NCCN1` (stereo not drawn) [Example 5, 2[2H-(5-Fluoro-1-methyl-1,3-dihydroisoindole)methyl]-4,5-dihydroimidazole], the inhibition in vivo at 5 µmol/kg in the assay on blood glucose (5 μmol/kg) stood at 20%. Moreover, at α2 -Adrenoceptor (setting [1]), the Ki was 0.8 nM.
On to `Clc1ccc(C2c3ccccc3CN2CC2=NCCN2)cc1` (stereo not drawn) [Example 6, 2-[2H-(1-(4-Chlorophenyl)-1,3-dihydroisoindole)methyl]-4,5-dihydroimidazole], for which the inhibition in vivo at 20 µmol/kg with blood glucose came out at 15%. The Ki on α2 -Adrenoceptor (setting [1]) was determined as 3.6 nM.
On the same counts, the results for `Clc1cccc(C2c3ccccc3CN2CC2=NCCN2)c1` (stereo not drawn) [Example 7] are 22% and 1.8 nM.
As to `Fc1ccc(C2c3ccccc3CN2CC2=NCCN2)cc1` (stereo not drawn) [Example 8, 2-[2H-(1-(4-Fluorophenyl)-1,3-dihydroisoindole)methyl]-4,5-dihydroimidazole], in the assay on blood glucose, the inhibition in vivo at 20 µmol/kg was 21%. The Ki on α2 -Adrenoceptor (setting [1]) came out at 2.7 nM.
On the same counts, the results for `c1ccc(C2c3ccccc3CN2CC2=NCCN2)cc1` (stereo not drawn) [Example 9, 2-[2H-(1-Phenyl-1,3-dihydroisoindole)methyl]-4,5-dihydroimidazole] are 31% and 6.9 nM.
In the case of `CC(C)C1c2ccccc2CN1CC1=NCCN1` (stereo not drawn) [Example 10, 2-(2H-[1-(1-Methylethyl)-1,3-dihydroisoindole]methyl)-4,5-dihydroimidazole dihydrochloride hemihydrate], the Ki on α2 -Adrenoceptor (setting [1]) turned out to be 34 nM.
The same measure, in the same setting: with `Cc1ccc(C2c3ccccc3CN2CC2=NCCN2)cc1` (stereo not drawn) [Example 11, 2-[2H-(1-(4-Methylphenyl)-1,3-dihydroisoindole)methyl]-4,5-dihydroimidazole] the figure was 25 nM.
For `COc1ccc(C2c3ccccc3CN2CC2=NCCN2)cc1` (stereo not drawn) [Example 12, 2-[2H-(1-(4-Methoxyphenyl)-1,3-dihydroisoindole)methyl]-4,5-dihydroimidazole], the inhibition in vivo at 20 µmol/kg in the assay with blood glucose amounted to 34%. The inhibition constant (Ki) on α2 -Adrenoceptor (setting [1]) stood at 2 nM.
Turning to `c1ccc(CC2c3ccccc3CN2CC2=NCCN2)cc1` (stereo not drawn) [Example 13, 2-[2H-(1-Benzyl-1,3-dihydroisoindole)methyl]-4,5-dihydroimidazole], the inhibition in vivo at 20 µmol/kg in the assay with blood glucose turned out to be 16%. Moreover, on α2 -Adrenoceptor (setting [1]), the Ki turned out to be 40 nM.
